Laboratory results published in the supplement of paper PMC8671470.

Columns and labels:
Details in all cases: 72 h
[1] = test system: LAMA-84; assay: cell viability (% survival relative to DMSO control, bortezomib = 0%); higher = less cytotoxic
Summary of the method: (§1)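 Fifteen myeloid leukaemia cell lines (10 AML, 5 CML) were seeded at a density titrated to the linear growth range. They went into 384-well plates with compounds pre-printed at 1, 10, 100, 1000 or 10000 nM in duplicate. After 72 h at 37 °C with 5% CO2, viability was read by CellTiter-Glo luminescence. Values are percent survival, with vehicle set to 100% and a 10 µM positive control to 0%, averaged over the duplicates.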

[2] = test system: THP-1; assay: as above
Summary of the method: as §1

[3] = test system: Mono-Mac-6; assay: as above
Summary of the method: as §1

[4] = test system: KG-1; assay: as above
Summary of the method: as §1

[5] = test system: ML-2; assay: as above
Summary of the method: as §1

[6] = test system: MOLM-13; assay: as above
Summary of the method: as §1

[7] = test system: SHI-1; assay: as above
Summary of the method: as §1

[8] = test system: K-562; assay: as above
Summary of the method: as §1

[9] = test system: KCL-22; assay: as above
Summary of the method: as §1

[10] = test system: KU-812; assay: as above
Summary of the method: as §1

[11] = test system: BV-173; assay: as above
Summary of the method: as §1

[12] = test system: NOMO-1; assay: as above
Summary of the method: as §1

[13] = test system: MV4-11; assay: as above
Summary of the method: as §1

[14] = test system: HEL; assay: as above
Summary of the method: as §1

[15] = test system: HL-60; assay: as above
Summary of the method: as §1

[16] = test system: NOMO-1
Summary of the method: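 Seeded in RPMI 1640 at densities within the linear growth range, fifteen myeloid leukaemia cell lines were dispensed into 384-well plates with acoustically pre-printed compounds spanning five tenfold doses from 1 to 10,000 nM, in duplicate. The plates were kept for 72 h at 37 °C in 5% CO2 before luminescent ATP viability was measured and normalised to vehicle and to a positive control at 10 µM. Curves were fitted with a four-parameter log-logistic model. The IC50 was taken from those curves.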

[17] = test system: HL-60; assay: area under dose-response curve (viability, 1 nM-10 uM) (fraction (0-1)); higher = more sensitive
Summary of the method: (§2)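 In 384-well plates, the full library was rescreened in duplicate on HL-60 cells in RPMI 1640 with 10% FBS, at 1–10,000 nM in five tenfold concentrations, for 72 h at 37 °C, 5% CO2. Each run also held DMSO or 100 nM of one of three metabolic inhibitors. Viability was measured by CellTiter-Glo and normalised to DMSO wells and to wells with proteasome inhibitor, present at 10 μM. Any area under the curve comes from four-parameter log-logistic fitting with drc and PharmacoGx.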

[18] = test system: HL-60; assay: cell viability (% survival relative to DMSO control); higher = less cytotoxic
Summary of the method: as §2

N[C@@H](CCC(=O)N[C@@H](CS)C(=O)NCC(=O)O)C(=O)O [Glutathione]
Details | area under dose-response curve, co-treatment: AZD3965 100 nM | area under dose-response curve, co-treatment: DMSO vehicle | area under dose-response curve, co-treatment: GSK2194069 100 nM | area under dose-response curve, co-treatment: pictilisib 100 nM | cell viability, 1 nM [%] | cell viability, 10 nM [%] | cell viability, 100 nM [%] | cell viability, 1000 nM [%] | cell viability, 10000 nM [%]
[1] | – | – | – | – | 100 | 98.1 | 97.6 | 98.1 | 104
[2] | – | – | – | – | 100 | 102 | 95.4 | 105 | 105
[3] | – | – | – | – | 96.2 | 89.5 | 84.9 | 103 | 89.9
[4] | – | – | – | – | 106 | 101 | 111 | 95.7 | 110
[5] | – | – | – | – | 93.2 | 106 | 103 | 93 | 104
[6] | – | – | – | – | 111 | 114 | 91.4 | 92.5 | 92.1
[7] | – | – | – | – | 99.3 | 106 | 106 | 97.5 | 95.3
[8] | – | – | – | – | 94.4 | 106 | 92.2 | 93.6 | 98.7
[9] | – | – | – | – | 101 | 110 | 91.4 | 95.6 | 107
[10] | – | – | – | – | 105 | 110 | 108 | 96 | 96.5
[11] | – | – | – | – | 102 | 99.4 | 94.4 | 101 | 91.9
[12] | – | – | – | – | 98.9 | 105 | 91.1 | 94.2 | 106
[13] | – | – | – | – | 106 | 99.2 | 107 | 80.9 | 106
[14] | – | – | – | – | 106 | 95.7 | 96.1 | 94.2 | 111
[15] | – | – | – | – | 77.8 | 94.8 | 98.7 | 70.5 | 105
[17] | < 0.0301 | < 0.0301 | < 0.0301 | < 0.0301 | – | – | – | – | –

Details | IC50 (cell viability) [µM]
[16] | > 10

cell viability [%], [18]
Details | 0.001 µM | 0.01 µM | 0.1 µM | 1 µM | 10 µM
co-treatment: AZD3965 100 nM | 99.7 | 98.74 | 99.1 | 102 | 99.8
co-treatment: DMSO vehicle | 101 | 99.78 | 99.69 | 98.63 | 102.2
co-treatment: GSK2194069 100 nM | 96.2 | 100.3 | 95.1 | 101 | 100.27
co-treatment: pictilisib 100 nM | 96.6 | 96.4 | 86.3 | 96.3 | 106
